13 molecules from patent publication US20100056508A1, “AMINE DERIVATIVES AND THEIR USE IN BETA-2-ADRENORECEPTOR MEDIATED DISEASES” (ASTRAZENECA AB, priority 2006, published 2010) can be followed below.

SMILES strings stand for the structures. Counter-ions that a name gives are not always drawn.

The target of assay [1] is T1, Adrenergic β2 (Homo sapiens, UniProt P07550).
T1 construct: Adherent H292 cells were removed from tissue culture flasks; endogenous in cells; host or cells: H292 cells
In words: Adrenergic β2 mediated cAMP production in H292 cells (AlphaScreen cAMP detection). The format is cell-based. The conditions noted are these: for β2 Int Act: Intrinsic Activity as a fraction relative to the maximum activity determined for formoterol; for EC50: cAMP production, 60 minutes at room temperature, 300 μM rolipram, read-out: β2 pEC50 (converted). Also on record: key to β2 Int Act: fraction of formoterol maximum activity (formoterol = 1). The method, boiled down:
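H292 cells pre-treated 10 min with rolipram (300 μM final), then given agonist for 60 min at room temperature in HBSS/10 mM HEPES pH 7.4, 1.6% DMSO final. Lysate cAMP measured by AlphaScreen against a cAMP standard curve. Four-parameter fit gives pEC50; intrinsic activity relative to formoterol maximum.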

Assay [2] concerns the target T2, recombinant human adrenergic beta 1 receptors (Homo sapiens, UniProt P08588).
T2 construct: purchased Euroscreen
In words: Adrenergic β1 selectivity assay, [125I]-Iodocyanopindolol binding to membranes. The conditions noted are these: inhibition of [125I]-Iodocyanopindolol binding, read-out: β1 bind pIC50 (converted). The method, then: Membranes containing recombinant human adrenergic beta 1 receptors were obtained from Euroscreen. These were diluted in Assay Buffer (50 mM HEPES, 1 mM EDTA, 120 mM NaCl, 0.1% gelatin, pH 7.4) to provide a final concentration of membranes that gave a clear window between maximum and minimum specific binding.
Assays were performed in U-bottomed 96-well polypropylene plates. 10 μL [^125I]-Iodocyanopindolol (0.036 nM final concentration) and 10 μL of test compound (10× final concentration) were added to each test well. For each assay plate 8 replicates were obtained for [^125I]-Iodocyanopindolol binding in the presence of 10 μL vehicle (10% (v/v) DMSO in Assay Buffer; defining maximum binding) or 10 μL Propranolol (10 μM final concentration; defining non-specific binding (NSB)). Membranes were then added to achieve a final volume of 100 μL. The plates were incubated for 2 hours at room temperature and then filtered onto PEI coated GF/B filter plates, pre-soaked for 1 hour in Assay Buffer, using a 96-well plate Tomtec cell harvester. Five washes with 250 μL wash buffer (50 mM HEPES, 1 mM EDTA, 120 mM NaCl, pH 7.4) were performed at 4° C. to remove unbound radioactivity. The plates were dried then sealed from underneath using Packard plate sealers and MicroScint-O (50 μL) was added to each well. The plates were sealed (TopSeal A) and filter-bound radioactivity was measured with a scintillation counter (TopCount, Packard BioScience) using a 3-minute counting protocol.
Total specific binding (B0) was determined by subtracting the mean NSB from the mean maximum binding. NSB values were also subtracted from values from all other wells. […] Data was fitted to a four parameter logistic equation to determine the compound potency, which was expressed as pIC50 (negative log molar concentration inducing 50% inhibition of [^125I]-Iodocyanopindolol binding).

Assay [3] deals with T3, recombinant human Dopamine Subtype D2s receptors (Homo sapiens, UniProt P14416).
T3 construct: purchased Perkin Elmer
T3 sequence (P14416 1-414 isoform P14416-2): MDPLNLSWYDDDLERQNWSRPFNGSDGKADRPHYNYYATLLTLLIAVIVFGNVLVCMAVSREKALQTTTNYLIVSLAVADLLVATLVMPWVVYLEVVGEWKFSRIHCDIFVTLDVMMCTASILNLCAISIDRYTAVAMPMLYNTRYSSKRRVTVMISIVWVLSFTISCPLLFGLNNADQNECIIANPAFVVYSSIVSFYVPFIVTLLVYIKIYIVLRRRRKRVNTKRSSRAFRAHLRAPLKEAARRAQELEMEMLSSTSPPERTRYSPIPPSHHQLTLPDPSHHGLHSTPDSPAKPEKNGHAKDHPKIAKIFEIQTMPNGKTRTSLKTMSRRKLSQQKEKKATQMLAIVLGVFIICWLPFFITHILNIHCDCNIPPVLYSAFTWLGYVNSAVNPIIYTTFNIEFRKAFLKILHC
In words: Dopamine D2 selectivity assay, [3H]-spiperone binding to membranes. The conditions noted are these: inhibition of [3H]-spiperone binding, read-out: D2 bind pIC50 (converted). The method, then: Membranes containing recombinant human Dopamine Subtype D2s receptors were obtained from Perkin Elmer. These were diluted in Assay Buffer (50 mM HEPES, 1 mM EDTA, 120 mM NaCl, 0.1% gelatin, pH 7.4) to provide a final concentration of membranes that gave a clear window between maximum and minimum specific binding.
Assays were performed in U-bottomed 96-well polypropylene plates. 30 μL [^3H]-spiperone (0.16 nM final concentration) and 30 μL of test compound (10× final concentration) were added to each test well. For each assay plate 8 replicates were obtained for [^3H]-spiperone binding in the presence of 30 μL vehicle (10% (v/v) DMSO in Assay Buffer; defining maximum binding) or 30 μL Haloperidol (10 μM final concentration; defining non-specific binding (NSB)). Membranes were then added to achieve a final volume of 300 μL. The plates were incubated for 2 hours at room temperature and then filtered onto PEI coated GF/B filter plates, pre-soaked for 1 hour in Assay Buffer, using a 96-well plate Tomtec cell harvester. Five washes with 250 μL wash buffer (50 mM HEPES, 1 mM EDTA, 120 mM NaCl, pH 7.4) were performed at 4° C. to remove unbound radioactivity. The plates were dried then sealed from underneath using Packard plate sealers and MicroScint-0 (50 μL) was added to each well. The plates were sealed (TopSeal A) and filter-bound radioactivity was measured with a scintillation counter (TopCount, Packard BioScience) using a 3-minute counting protocol.
Total specific binding (B0) was determined by subtracting the mean NSB from the mean maximum binding. NSB values were also subtracted from values from all other wells. […] Data was fitted to a four parameter logistic equation to determine the compound potency, which was expressed as pIC50 (negative log molar concentration inducing 50% inhibition of [^3H]-spiperone binding).

T2 sequence (P08588 whole entry): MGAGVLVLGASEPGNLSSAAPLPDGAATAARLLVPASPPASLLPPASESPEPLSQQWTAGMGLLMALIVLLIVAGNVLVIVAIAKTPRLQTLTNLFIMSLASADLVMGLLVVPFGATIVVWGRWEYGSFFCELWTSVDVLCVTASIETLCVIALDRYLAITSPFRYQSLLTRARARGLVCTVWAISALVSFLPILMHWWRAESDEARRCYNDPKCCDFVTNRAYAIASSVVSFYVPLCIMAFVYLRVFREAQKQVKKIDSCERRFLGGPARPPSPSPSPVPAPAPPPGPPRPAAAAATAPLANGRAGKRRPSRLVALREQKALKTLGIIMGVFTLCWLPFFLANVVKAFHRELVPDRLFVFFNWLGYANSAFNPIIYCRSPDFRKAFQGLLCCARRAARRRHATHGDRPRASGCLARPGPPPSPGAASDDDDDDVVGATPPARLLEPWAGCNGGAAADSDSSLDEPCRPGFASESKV
T1 sequence (P07550 whole entry): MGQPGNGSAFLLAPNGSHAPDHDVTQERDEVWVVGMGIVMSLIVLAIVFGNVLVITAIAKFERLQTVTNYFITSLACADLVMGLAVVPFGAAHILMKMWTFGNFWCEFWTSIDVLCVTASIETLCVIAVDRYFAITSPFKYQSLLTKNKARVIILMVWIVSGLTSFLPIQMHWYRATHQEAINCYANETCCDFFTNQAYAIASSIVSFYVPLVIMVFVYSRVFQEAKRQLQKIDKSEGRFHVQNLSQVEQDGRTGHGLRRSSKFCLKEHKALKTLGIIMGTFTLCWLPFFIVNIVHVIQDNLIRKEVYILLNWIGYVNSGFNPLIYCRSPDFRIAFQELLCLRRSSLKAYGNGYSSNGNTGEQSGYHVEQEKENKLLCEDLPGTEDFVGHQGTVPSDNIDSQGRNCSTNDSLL

As for `CCCC[C@@H](C)N(CCNCCc1ccc(O)c2c1OCC(=O)N2)C(=O)CCNCCc1ccc(F)c(C)c1` [Example 47, (R)-3-(4-Fluoro-3-methylphenethylamino)-N-(hexan-2-yl)-N-(2-(2-(5-hydroxy-3-oxo-3,4-dihydro-2H-benzo[b][1,4]oxazin-8-yl)ethylamino)ethyl)propanamide bis(trifluoroacetate)], the “β2 Int Act” value in assay [1] is reported as 0.89. Also, the EC50 in assay [1] is 1.58 nM. For the same molecule, the IC50 in assay [2] is 631 nM; in assay [3] it was 50.1 nM.

`CC[C@@H](C)N(CCNCCc1ccc(O)c2c1OCC(=O)N2)C(=O)CCNCCc1ccc(Cl)c(Cl)c1` [Example 58, (R)—N-sec-Butyl-3-(3,4-dichlorophenethylamino)-N-(2-(2-(5-hydroxy-3-oxo-3,4-dihydro-2H-benzo[b][1,4]oxazin-8-yl)ethylamino)ethyl)propanamide dihydrochloride]: in assay [1], the “β2 Int Act” value came out at 0.91 and the EC50 was 7.94 nM. Also, the IC50 in assay [2] was 2000 nM. For the same molecule, the IC50 in assay [3] is 39.8 nM.

Turning to `O=C1COc2c(CCNCCN(C(=O)CCOCCc3cccc(Cl)c3)C3CCCCC3)ccc(O)c2N1` [Example 77, 3-(3-Chlorophenethoxy)-N-cyclohexyl-N-(2-(2-(5-hydroxy-3-oxo-3,4-dihydro-2H-benzo[b][1,4]oxazin-8-yl)ethylamino)ethyl)propanamide trifluoroacetate], in assay [1], the “β2 Int Act” value was found to be 0.97 and the EC50 is 2 nM. In addition, in assay [2], the IC50 was 3160 nM. Further, the IC50 in assay [3] was 2000 nM.

With `O=C(CCNCCc1ccc(Cl)cc1)N(CCNCCc1ccc(O)c2[nH]c(=O)ccc12)C1CCCCC1` [Example 14, 3-(4-Chlorophenethylamino)-N-cyclohexyl-N-(2-(2-(8-hydroxy-2-oxo-1,2-dihydroquinolin-5-yl)ethylamino)ethyl)propanamide bis(trifluoroacetate)], in assay [1], the “β2 Int Act” value amounted to 0.88 and the EC50 was 20 nM. Also, the IC50 in assay [2] is over 10000 nM. Besides, the IC50 in assay [3] is 251 nM.

For `O=C1COc2c(CCNCCN(C(=O)CCNCCc3cc(F)cc(Cl)c3)C3CCCCCC3)ccc(O)c2N1` [Example 66, 3-(3-Chloro-5-fluorophenethylamino)-N-cycloheptyl-N-(2-(2-(5-hydroxy-3-oxo-3,4-dihydro-2H-benzo[b][1,4]oxazin-8-yl)ethylamino)ethyl)propanamide bis(trifluoroacetate)], the “β2 Int Act” value in assay [1] was found to be 0.99. Further, the EC50 in assay [1] was 2.51 nM. Moreover, the results for the IC50 in assay [2] and in assay [3] were 1580 nM and 39.8 nM, respectively.

As to `O=C1COc2c(CCNCCN(C(=O)CCNCCc3cccc(Cl)c3Cl)C3CCCCC3)ccc(O)c2N1` [Example 29, N-Cyclohexyl-3-(2,3-dichlorophenethylamino)-N-(2-(2-(5-hydroxy-3-oxo-3,4-dihydro-2H-benzo[b][1,4]oxazin-8-yl)ethylamino)ethyl)propanamide bis(trifluoroacetate)], in assay [1], the “β2 Int Act” value is 0.91 and the EC50 is 5.01 nM. For the same molecule, in assay [2], the IC50 was 3160 nM. Further, in assay [3], the IC50 was 100 nM.

For the molecule `CC(C)[C@@H](C)N(CCNCCc1ccc(O)c2[nH]c(=O)ccc12)C(=O)CCOCCc1ccccc1.Cl` [Example 80, (R)—N-(2-(2-(8-Hydroxy-2-oxo-1,2-dihydroquinolin-5-yl)ethylamino)ethyl)-N-(3-methylbutan-2-yl)-3-phenethoxypropanamide hydrochloride], in assay [1], the “β2 Int Act” value worked out at 1.04 and the EC50 is 25.1 nM. In addition, in assay [2], the IC50 is over 10000 nM. Further, the IC50 in assay [3] is 2510 nM.

Take `CCCC[C@@H](C)N(CCNCCc1ccc(O)c2c1OCC(=O)N2)C(=O)CCNCCc1cc(F)cc(F)c1` [Example 51, (R)-3-(3,5-Difluorophenethylamino)-N-(hexan-2-yl)-N-(2-(2-(5-hydroxy-3-oxo-3,4-dihydro-2H-benzo[b][1,4]oxazin-8-yl)ethylamino)ethyl)propanamide bis(trifluoroacetate)]: the “β2 Int Act” value in assay [1] is given as 0.94. For the same molecule, the EC50 in assay [1] is 1.58 nM. Moreover, the IC50 was 2000 nM in assay [2] and 39.8 nM in assay [3].

On to `CCCC[C@@H](C)N(CCNCCc1ccc(O)c2c1OCC(=O)N2)C(=O)CCNCCc1cccc(Cl)c1` [Example 44, (R)-3-(3-Chlorophenethylamino)-N-(hexan-2-yl)-N-(2-(2-(5-hydroxy-3-oxo-3,4-dihydro-2H-benzo[b][1,4]oxazin-8-yl)ethylamino)ethyl)propanamide bis(trifluoroacetate)], for which the “β2 Int Act” value in assay [1] is given as 0.89. Further, the EC50 in assay [1] is 2 nM. For the same molecule, the results for the IC50 in assay [2] and in assay [3] were 1260 nM and 79.4 nM, respectively.

Take `CCCC[C@@H](C)N(CCNCCc1ccc(O)c2c1OCC(=O)N2)C(=O)CCNCCc1ccccc1Cl` [Example 46, (R)-3-(2-Chlorophenethylamino)-N-(hexan-2-yl)-N-(2-(2-(5-hydroxy-3-oxo-3,4-dihydro-2H-benzo[b][1,4]oxazin-8-yl)ethylamino)ethyl)propanamide bis(trifluoroacetate)]: in assay [1], the “β2 Int Act” value is on record as 0.89 and the EC50 is 1.26 nM. Also, in assay [2], the IC50 was 1580 nM. For the same molecule, the IC50 in assay [3] was 15.8 nM.

Take `CCCC[C@@H](C)N(CCNCCc1ccc(O)c2c1OCC(=O)N2)C(=O)CCNCCc1ccc(Cl)cc1` [Example 45, (R)-3-(4-Chlorophenethylamino)-N-(hexan-2-yl)-N-(2-(2-(5-hydroxy-3-oxo-3,4-dihydro-2H-benzo[b][1,4]oxazin-8-yl)ethylamino)ethyl)propanamide bis(trifluoroacetate)]: in assay [1], the “β2 Int Act” value is 0.89 and the EC50 was 5.01 nM. The IC50 in assay [2] is 1260 nM. Further, the IC50 in assay [3] is 79.4 nM.

`CCOc1cccc(CCNCCC(=O)N(CCNCCc2ccc(O)c3[nH]c(=O)ccc23)C2CCCCCC2)c1` [Example 11, N-Cycloheptyl-3-(3-ethoxyphenethylamino)-N-(2-(2-(8-hydroxy-2-oxo-1,2-dihydroquinolin-5-yl)ethylamino)ethyl)propanamide bis(trifluoroacetate)]: in assay [1], the “β2 Int Act” value is on record as 0.65 and the EC50 was 79.4 nM. Moreover, the IC50 in assay [2] was over 10000 nM. In addition, in assay [3], the IC50 was 501 nM.

As to `CCCC[C@@H](C)N(CCNCCc1ccc(O)c2c1OCC(=O)N2)C(=O)CCNCCc1ccc(Cl)c(Cl)c1` [Example 55, (R)-3-(3,4-Dichlorophenethylamino)-N-(hexan-2-yl)-N-(2-(2-(5-hydroxy-3-oxo-3,4-dihydro-2H-benzo[b][1,4]oxazin-8-yl)ethylamino)ethyl)propanamide bis(trifluoroacetate)], in assay [1], the “β2 Int Act” value is 0.92 and the EC50 was 31.6 nM. Besides, the IC50 in assay [2] is 1000 nM. Further, the IC50 in assay [3] is 50.1 nM.
